This note sets out measurements from patent publication US9695150B2, “Crystalline form of a substituted quinoline compound and pharmaceutical compositions thereof” (Sunshine Lake Pharma Co., Ltd., priority 2015, dated 2017).

The AUC(0-inf) is total exposure, with the tail of the curve extrapolated. Higher therefore signals high exposure. Broadly, the Cmax is the highest concentration seen after dosing. In general, Tmax refers to the time at which the peak concentration occurs. Usually half-life stands for the time needed for the level to fall by half in the phase considered.

A short description of data set [1]: Stability test (impurity contents by HPLC after storage of the solid). The following applies: p-toluenesulfonate. The class given is physicochemical. As for the experimental part:
A sample of crystalline form C of compound (I) (100˜200 mg) was placed on a watching glass in the form of a thin layer (thickness ≦5 mm). The samples were exposed to the following conditions: high temperature (60±2° C.) for 10 days; high humidity (25±2° C., 90%±5% relative humidity) for 10 days; illumination condition (visible light 4500 lx±500 lx with ultraviolet light not lower than 0.7 W·h/m^2, 25±2° C., 60%±5% relative humidity) for 10 days; and room temperature (30±2° C., 65%±5% relative humidity) for 10 days, respectively. The impurity contents in the samples were determined at different time points (0, 5 and 10 days) by high performance liquid chromatography (HPLC), and the absorption peaks were normalized relative to the highest peak (corresponds to compound I) which is set to 100%.

A further data set can be described thus: Hygroscopicity test. The class given is physicochemical. The following applies: p-toluenesulfonate; for Hygroscopicity (in words): conclusion from Table 4; for Hygroscopic capacity %: 25±1° C. As for the experimental part:
A glass weighing bottle equipped with a stopper was tarred and the weight was recorded as m1. Compound (I) in crystalline form C or amorphous form (about 1.0 g) was placed in the tared weighing bottle and capped with the stopper. The total weight was then recorded as m2. […] The weighing bottle capped with its stopper was weighed on day 5 and day 10 and the weight was recorded as m3.

A short description of data set [2]: Stability test (impurity contents by HPLC after storage of the solid). The class given is physicochemical. The following applies: p-toluenesulfonate; for Increase of the impurity contents: illuminating the samples for 10 days.
The nature of data set [3]: Pharmacokinetics test in beagle dogs. The class given is in vivo. As for the experimental part: The pharmacokinetic properties of amorphous Compound (I) or the crystalline form C of Compound (I) disclosed herein are assessed in beagle dogs. The LC/MS/MS system used in the analysis consists of an Agilent 1200 Series vacuum degasser, binary pump, well-plate autosampler, thermostatted column compartment, the Agilent G6430 Triple Quadrupole Mass Spectrometer with an electrosprayionization (ESI) source. Quantitative analysis was carried out using MRM mode. The parameters for MRM transitions are in the Table A.
An Agilent XDB-C18, 2.1×30 mm, 3.5 μM column was used for the analysis. 5 μL of the samples were injected. Analysis condition: The mobile phase was 0.1% formic acid in water (A) and 0.1% formic acid in methanol (B). The flow rate was 0.4 mL/min. And the gradient of Mobile phase was in the Table B.
Alternatively, an Agilent 6330 series LC/MS/MS spectrometer equipped with G1312A binary pumps, a G1367A autosampler and a G1314C UV detector were used in the analysis. An ESI source was used on the LC/MS/MS spectrometer. The analysis was done in positive ion mode as appropriate and the MRM transition for each analyte was optimized using standard solution. A Capcell MP-C18 100×4.6 mm I.D., […] column (Phenomenex, Torrance, Calif., USA) was used during the analysis. The mobile phase was 5 mM ammonia acetate, 0.1% MeOH in water (A): 5 mM ammonia acetate, 0.1% MeOH in acetonitrile (B) (70/30, v/v). The flow rate was 0.6 mL/min. Column was maintained at ambient temperature. 20 μL of the samples were injected.
The capsule of the crystalline form C or the amorphous of Compound (I) mixed with adjuvants respectively was administered by gavage to beagle dogs in a dose of 7 or 10 mg/kg. The blood samples (0.3 mL) were drawn at 0.25, 0.5, 1.0, 2.0, 3.0, 4.0, 6.0, 8.0, 12 and 24 hour time points or 0.083, 0.25, 0.5, 1.0, 2.0, 4.0, 6.0, 8.0 and 24 hour time points and centrifuged at 3,000 or 4000 rpm for 2 to 10 min. The plasma solutions were collected, and analyzed by LC/MS/MS as described above. The pharmacokinetic parameters were calculated according to non-compartment model using WinNonlin procedure.

[4] abbreviates: high temperature (60±2° C.), 0 day.
Setting [5] is: high temperature (60±2° C.), 5 days.
Setting [6] is: illuminating condition (visible light 4500 lx±500 lx with UV, 25±2° C., 60%±5% RH), 0 day.
The mark [7] stands for this setting: illuminating condition (visible light 4500 lx±500 lx with UV, 25±2° C., 60%±5% RH), 5 days.
The mark [8] stands for this setting: room temperature (30±2° C., 65%±5% relative humidity), 5 days.
Setting [9] is: room temperature (30±2° C., 65%±5% relative humidity), 10 days.
[10] abbreviates: listed as amorphous Compound (I).
[11] abbreviates: high humidity (25±2° C., 90%±5% relative humidity), 0 day.
Where [12] appears, read: high humidity (25±2° C., 90%±5% relative humidity), 5 days.
[13] abbreviates: high humidity (25±2° C., 90%±5% relative humidity), 10 days.
Where [14] appears, read: high temperature (60±2° C.), 10 days.
The mark [15] stands for this setting: illuminating condition (visible light 4500 lx±500 lx with UV, 25±2° C., 60%±5% RH), 10 days.
The mark [16] stands for this setting: room temperature (30±2° C., 65%±5% relative humidity), 0 day.
Setting [17] is: dog, plasma, po, capsule by gavage, dose 9.9 mg/kg (Form C), 9.7 mg/kg (Amorphous).

Consider `Cc1c(C(=O)Nc2ccc(Oc3ccnc4cc(OCC(C)(C)O)ccc34)c(F)c2)c(=O)n(-c2ccccc2)n1C.Cc1ccc(S(=O)(=O)O)cc1` [Amorphous, N-(3-fluoro-4-((7-(2-hydroxy-2-methylpropoxy)quinolin-4-yl)oxy)phenyl)-1,5-dimethyl-3-oxo-2-phenyl-2,3-dihydro-1H-pyrazole-4-carboxamide p-toluenesulfonate], for which the The impurity contents in data set [1] (setting [4]) is given as 0.14%; in data set [1] (setting [5]), 0.13%; in data set [1] (setting [6]), 0.14%; in data set [1] (setting [7]), 0.36%; in data set [1] (setting [8]), 0.07%; in data set [1] (setting [9]), 0.07%. Further, the The impurity contents stood at 0.14% in data set [2] (setting [11]); 0.11% in data set [2] (setting [12]); 0.07% in data set [2] (setting [13]); 0.10% in data set [2] (setting [14]); 0.56% in data set [2] (setting [15]); 0.14% in data set [2] (setting [16]). In “Hygroscopicity test” (setting [10]), the “Hygroscopicity (in words)” value was “hygroscopic”. The Hygroscopic capacity % is recorded as 7.74% in “Hygroscopicity test” (standing time 5 d) and 8.48% in “Hygroscopicity test” (standing time 10 d). Besides, the “Increase of the impurity contents” value in data set [2] (setting [10]) was determined as 0.42%.
In the case of `Cc1c(C(=O)Nc2ccc(Oc3ccnc4cc(OCC(C)(C)O)ccc34)c(F)c2)c(=O)n(-c2ccccc2)n1C.Cc1ccc(S(=O)(=O)O)cc1` [Form C, N-(3-fluoro-4-((7-(2-hydroxy-2-methylpropoxy)quinolin-4-yl)oxy)phenyl)-1,5-dimethyl-3-oxo-2-phenyl-2,3-dihydro-1H-pyrazole-4-carboxamide p-toluenesulfonate], the “Exposure and bioavailability in vivo (in words)” value in data set [3] (Cmax, AUC0-24h and AUC0-∞ compared with amorphous Compound (I)) is “good exposure and bioavailability”. The compound also yielded an AUC(0-inf) in data set [3] (setting [17]) of 90100 ng·h/mL. The Cmax in data set [3] (setting [17]) was 4760 ng/mL. The time to peak (Tmax) in data set [3] (setting [17]) worked out at 4 h. In data set [3] (setting [17]), this compound had a half-life of 14.6 h. In addition, in data set [3] (dog, plasma, po, capsule by gavage, dose 9.9 mg/kg (Form C), 9.7 mg/kg (Amorphous), read-out: AUC0-24 h), the AUC(0-t) was found to be 59700 ng·h/mL. For the same compound, the The impurity contents in data set [1] (setting [4]) is recorded as 2.00%; in data set [1] (setting [5]) it was 1.97%; in data set [1] (setting [6]), 2.00%; in data set [1] (setting [7]) it was 1.97%; in data set [1] (setting [8]), 1.90%; in data set [1] (setting [9]) it was 1.91%. The The impurity contents in data set [2] (setting [11]) is 2.00%; in data set [2] (setting [12]) it was 1.94%; in data set [2] (setting [13]) it was 1.92%; in data set [2] (setting [14]), 1.89%; in data set [2] (setting [15]), 2.14%; in data set [2] (setting [16]), 2.00%. In addition, the “Hygroscopicity (in words)” value in “Hygroscopicity test” (listed as crystalline form C of compound (I)) is reported as “not hygroscopic”. Moreover, the Hygroscopic capacity % in the data set “Hygroscopicity test” (standing time 5 d) was 0.22%; in the data set “Hygroscopicity test” (standing time 10 d) it was 0.43%. In addition, the “Increase of the impurity contents” value in data set [2] (listed as crystalline form C of Compound (I)) stood at 0.14%.
